Values quoted from earlier work in US20260283943A1, “STARCHLESS MOLDING PROCESS FOR ORAL PRODUCTS” (NICOVENTURES TRADING LIMITED, priority 2023, published 2026).

What was measured:
[1] = isolated substance

Compound | Solubility in water | Chemical stability [1]
C=C(C)[C@@H]1CCC(C)=C[C@H]1c1c(O)cc(CCCCC)cc1O [CBD, cannabidiol, reference compound] | insoluble in an aqueous environment | –
COC(=O)/C=C/C(C)=C\C=C\C(C)=C\C=C\C=C(C)\C=C\C=C(C)\C=C\C(=O)O [bixin, (2E,4E,6E,8E,10E,12E,14E,16Z,18E)-20-methoxy-4,8,13,17-tetramethyl-20-oxoicosa-2,4,6,8,10,12,14,16,18-nonaenoic acid] | insoluble in water | chemically unstable when isolated
